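48-hour exposure; five concentrations; linearly interpolated endpoints. GI50 = concentration required for 50% inhibition of growth. TGI marks complete inhibition of growth.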
Columns and labels:
Experiment in all cases: DTP human tumour cell line panel, 48 h
[1] = tested on: 786-0 renal
[2] = tested on: HT29 colon
[3] = tested on: NCI-H460 lung
[4] = tested on: TK-10 renal
[5] = tested on: MDA-MB-435
[6] = tested on: SNB-19 CNS
[7] = tested on: MCF7 breast
[8] = tested on: T-47D breast
[9] = tested on: HL-60(TB) leukemia
[10] = tested on: HCT-15 colon
[11] = tested on: OVCAR-5 ovarian
[12] = tested on: SK-MEL-5 melanoma
[13] = tested on: HCT-116 colon
[14] = tested on: OVCAR-4 ovarian
[15] = tested on: MOLT-4 leukemia
[16] = tested on: SK-OV-3 ovarian
[17] = tested on: EKVX NSCLC
[18] = tested on: MALME-3M melanoma
[19] = tested on: NCI-H23 lung
[20] = tested on: A549 NSCLC
[21] = tested on: RPMI-8226 leukemia
[22] = tested on: M14 melanoma
[23] = tested on: SK-MEL-2 melanoma
[24] = tested on: U251 CNS
[25] = tested on: A498 renal
[26] = tested on: COLO 205 colon
[27] = tested on: UACC-257 melanoma
[28] = tested on: SF-539 CNS
[29] = tested on: IGROV1 ovarian
[30] = tested on: UO-31 renal
[31] = tested on: UACC-62 melanoma
[32] = tested on: PC-3 prostate
[33] = tested on: SR leukemia
[34] = tested on: SK-MEL-28 melanoma
[35] = tested on: HOP-92 NSCLC
[36] = tested on: HOP-62 NSCLC
[37] = tested on: SN12C renal
[38] = tested on: ACHN renal
[39] = tested on: NCI-H226 lung
[40] = tested on: SW-620 colon
[41] = tested on: CAKI-1 renal
[42] = tested on: BT-549 breast
[43] = tested on: CCRF-CEM leukemia
[44] = tested on: SF-295 CNS
[45] = tested on: KM12 colon
[46] = tested on: HS 578T breast
[47] = tested on: SF-268 CNS
[48] = tested on: OVCAR-3 ovarian
[49] = tested on: MDA-MB-231 breast
[50] = tested on: DU-145 prostate
[51] = tested on: HCC-2998 colon
[52] = tested on: K-562 leukemia
[53] = tested on: SNB-75 CNS
[54] = tested on: OVCAR-8 ovarian
[55] = tested on: NCI/ADR-RES ovarian
[56] = tested on: MDA-MB-468 breast
[57] = tested on: RXF 393 renal
[58] = tested on: NCI-H522 lung

## Cn1cc(-c2cc(N)n3nc(-c4cn(C)c5ccccc45)cc3n2)c2cc(Cl)ccc21
[1]
  GI50: 1.74 µM
  TGI: 3.45 µM
[2]
  GI50: 1.79 µM
  TGI: 3.51 µM
[3]
  GI50: 2.2 µM
  TGI: 4.96 µM
[4]
  GI50: 11.7 µM
  TGI: 26.6 µM
[5]
  GI50: 2.06 µM
  TGI: 4.26 µM
[6]
  GI50: 3.45 µM
  TGI: 23.8 µM
[7]
  GI50: 1.77 µM
  TGI: 4.13 µM
[8]
  GI50: 10.1 µM
  TGI: 33.3 µM
[9]
  GI50: 2.35 µM
  TGI: 5.81 µM
[10]
  GI50: 1.84 µM
  TGI: 3.95 µM
[11]
  GI50: 5.16 µM
  TGI: 25.5 µM
[12]
  GI50: 3.5 µM
  TGI: 13 µM
[13]
  GI50: 1.87 µM
  TGI: 3.87 µM
[14]
  GI50: 3.28 µM
  TGI: 11.3 µM
[15]
  GI50: 2.58 µM
  TGI: 9.61 µM
[16]
  GI50: 18 µM
  TGI: 48.2 µM
[17]
  GI50: 12.6 µM
  TGI: 37.4 µM
[18]
  GI50: 1.71 µM
  TGI: 3.22 µM
[19]
  GI50: 3.75 µM
  TGI: 20.5 µM
[20]
  GI50: 2.68 µM
  TGI: 10.7 µM
[21]
  GI50: 3.27 µM
  TGI: 14.9 µM
[22]
  GI50: 1.95 µM
  TGI: 4.71 µM
[23]
  GI50: 1.84 µM
  TGI: 4.1 µM
[24]
  GI50: 1.86 µM
  TGI: 3.73 µM
[25]
  GI50: 14.3 µM
  TGI: 32.3 µM
[26]
  GI50: 1.97 µM
  TGI: 3.95 µM
[27]
  GI50: 2.44 µM
  TGI: 7.17 µM
[28]
  GI50: 1.85 µM
  TGI: 3.83 µM
[29]
  GI50: 2.45 µM
  TGI: 8.26 µM
[30]
  GI50: 1.63 µM
  TGI: 3.07 µM
[31]
  GI50: 1.64 µM
  TGI: 3.16 µM
[32]
  GI50: 1.93 µM
  TGI: 4.91 µM
[33]
  GI50: 2.03 µM
  TGI: 6.77 µM
[34]
  GI50: 1.69 µM
  TGI: 3.08 µM
[35]
  GI50: 2.23 µM
  TGI: 6.51 µM
[36]
  GI50: 5.29 µM
  TGI: 26.4 µM
[37]
  GI50: 1.77 µM
  TGI: 3.33 µM
[38]
  GI50: 2.05 µM
  TGI: 4.46 µM
[39]
  GI50: > 100 µM
  TGI: > 100 µM
[40]
  GI50: 2.17 µM
  TGI: 4.8 µM
[41]
  GI50: 2 µM
  TGI: 5.54 µM
[42]
  GI50: 14.6 µM
  TGI: 33.4 µM
[43]
  GI50: 3.22 µM
  TGI: 15.3 µM
[44]
  GI50: 1.92 µM
  TGI: 4.26 µM
[45]
  GI50: 2.15 µM
  TGI: 4.83 µM
[46]
  GI50: 3.3 µM
  TGI: 19.4 µM
[47]
  GI50: 8.07 µM
  TGI: 32.7 µM
[48]
  GI50: 11.3 µM
  TGI: 28.1 µM
[49]
  GI50: 1.82 µM
  TGI: 3.3 µM
[50]
  GI50: 6.37 µM
  TGI: > 100 µM
[51]
  GI50: 1.78 µM
  TGI: 3.34 µM
[52]
  GI50: 2.97 µM
  TGI: 10.6 µM
[53]
  GI50: 10.6 µM
  TGI: 26.6 µM
[54]
  GI50: 2.09 µM
  TGI: 4.59 µM
[55]
  GI50: 3.03 µM
  TGI: 9.38 µM
[56]
  GI50: 2.2 µM
  TGI: 5.36 µM
[57]
  GI50: 1.98 µM
  TGI: 4.01 µM
[58]
  GI50: 1.6 µM
  TGI: 3.48 µM

Source: PubChem BioAssay (NCI)
